In US6765003B1, “3-Arylsulfonyl-2 (substituted methyl) propanoic acid derivatives as matrix metalloproteinase inhibitors” (Pharmacia Italia, SpA, priority 1999, dated 2004):
Where two headings read alike, the source gives them in different places.

Columns and labels:
rats = details: rat, in vivo
From the text: Questions remain concerning their specificity, bioavailability, and potential long-tens toxicity (see Hodgson, J., ‘Remodeling MMPIs’, Biotechnology 13:554-557, 1995), especially because they are primarily intended (in arthritis and cancer, at least) for prolonged therapy. […] Although the cause of this toxicity is not well understood at this moment, it is thought to arise from an impairment in the normal tissue remodeling that is governed by one or more of the MMPs, primarily fibroblast collagenase (MMP-1). […] Thus, there is a strong need for better MMPIs, especially as far as the properties referred to above (specificity, bioavailability, long-term toxicity) are concerned.

[1] = biological target: T1, Human gelatinase-A (MMP-2) (Homo sapiens, UniProt P08253); experiment: MMP inhibition, internal fluorescence quenching method (MCA peptide substrate); type: biochemical
T1 sequence (P08253 110-660): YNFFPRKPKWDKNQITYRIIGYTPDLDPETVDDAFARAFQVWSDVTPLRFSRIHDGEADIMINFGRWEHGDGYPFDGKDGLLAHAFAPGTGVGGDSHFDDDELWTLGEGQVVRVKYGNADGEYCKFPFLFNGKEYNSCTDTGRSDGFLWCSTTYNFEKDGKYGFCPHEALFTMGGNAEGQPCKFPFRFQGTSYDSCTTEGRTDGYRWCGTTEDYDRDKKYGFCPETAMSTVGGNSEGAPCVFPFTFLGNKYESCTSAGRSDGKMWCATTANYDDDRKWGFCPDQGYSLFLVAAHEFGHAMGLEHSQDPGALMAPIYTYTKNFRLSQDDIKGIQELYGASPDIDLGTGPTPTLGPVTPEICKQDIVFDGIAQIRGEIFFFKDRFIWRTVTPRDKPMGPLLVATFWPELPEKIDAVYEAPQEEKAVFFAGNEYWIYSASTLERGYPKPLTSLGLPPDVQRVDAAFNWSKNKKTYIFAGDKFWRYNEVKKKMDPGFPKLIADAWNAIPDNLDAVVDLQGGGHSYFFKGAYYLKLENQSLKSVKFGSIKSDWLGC
Description: (§1) The inhibitory activity of the compounds of the present invention was evaluated in vitro against one or more of the MMP enzymes (gelatinases, collagenases, stromelysins) using the internal fluorescence quenching method. The assay method is based on the hydrolysis of the MMP substrate, MCA-Pro-Leu-Gly-Leu-DPA-Ala—Arg-NH2 at 37° C. (see Knight, C. G. et al., FEBS Lett. 296:263-266, 1992). The enzymes cleave at the Gly-Leu bond removing the internally quenching DPA group. The release of the highly fluorescent peptide MCA-Pro-Leu was monitored with a LS50 Perkin Elmer fluorimeter equipped with a Peltier-thermostated cell holder using an excitation wavelength of 326 nm and an emission wavelenght of 398 nm. Slis were set at 14/14. Proper determination of steady-state rates of substrate cleavage required a preincubation at 37° C. of 15 minutes to allow for complete equilibration of the enzyme-inhibitor complex. […] Rates of substrate hydrolysis, expressed as fluorescence arbitrary units per minute, were calculated by least-square analysis of the steady-state linear progression curves. The steady-state rates were fitted to the Michaelis equation describing competitive inhibition; in particular, Ki,app were determined by fining the data to the tight-binding equation of Morrison (Biochem. Biophys. Acta, 185:269-286, 1969) by non-linear methods.
(§2) Human gelatinase-A (MMP-2) was obtained as penzyme (72 kDa) and was activated with 1 mM 4-aminophenylmercuric acetate for 30 min at 37° C. immediately prior to use. The inhibitor was diluted into the assay from a stock solution in 100% DMSO, and controls substituted an equal volume of DMSO so that the final DMSO concentration from inhibitor and substrate dilution in all assays was 1%. The concentration of MMP-2 was 19.2 picoM. For compounds of formula (I) where X is —OH, the assay buffer was 50 mM Tris/HCl pH 6.5 containing 150 mM NaCl, 10 mM CaCl2, 0.01 mM ZnCl2 and 0.05% Brij35 (Protocol A). Other conditions were as stated above.
The compounds of formula (I) where X is —NHOH were tested against MMP-2 and MMP-1 under the conditions stated above, but the assay solution was buffered at pH 7.4 (Protocol B).

patients = details: may be severe and dose-limiting; cited from earlier work
[2] = biological target: T2, Human fibroblast collagenase (MMP-1) (Homo sapiens, UniProt P03956); experiment: MMP inhibition, internal fluorescence quenching method (MCA peptide substrate); type: biochemical
T2 sequence (P03956 101-269): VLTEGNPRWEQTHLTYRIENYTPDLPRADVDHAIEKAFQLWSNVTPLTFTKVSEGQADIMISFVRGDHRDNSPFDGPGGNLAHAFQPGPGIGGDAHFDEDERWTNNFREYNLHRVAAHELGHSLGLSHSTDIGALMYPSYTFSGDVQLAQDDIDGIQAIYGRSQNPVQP
Description: as §1, §2
Assay conditions were the same as above, but enzyme concentration was 200 picoM.

[3] = Protocol A: Tris/HCl pH 6.5, 37° C., MMP-2 19.2 picoM, substrate 3 μM, carboxylic acids, read-out: MMP-2 Ki

Row | SMILES | Ki [1, 3] [nM] | melting point [°C] | further results
1 | CNC(=O)[C@@H](NC(=O)[C@@H](CC(=O)NO)CC(C)C)C(C)(C)C [Ro31-9790] | – | – | joint toxicity (histology of stifle joints) (rats): elicited histological alteration of stifle joints
2 | O=C(O)C(CSc1nccs1)CS(=O)(=O)c1ccc(-c2ccc(Cl)cc2)cc1 (stereo not drawn) [Example 28, 3-[(4′-chloro[1,1′-biphenyl]-4-yl)sulfonyl]-2-[(1,3-thiazol-2-ylsulfanyl)methyl]propanoic acid] | 6.6 | 152 to 154 | –
3 | COc1ccc(S(=O)(=O)N(Cc2cccnc2)[C@@H](C(=O)NO)C(C)C)cc1 [CGS27023A] | – | – | musculoskeletal syndrome in patients (patients): cause a musculoskeletal syndrome characterized by joint pain and stiffness
4 | CC1(C)NC(=O)N(CC(CS(=O)(=O)c2ccc(-c3ccc(Cl)cc3)cc2)C(=O)O)C1=O (stereo not drawn) [Example 9, 3-[(4′-chloro[1,1′-biphenyl]-4-yl)sulfonyl]-2-[(4,4-dimethyl-2,5-dioxo-1-imidazolidinyl)methyl]propanoic acid] | 3 | 242 to 245 | –
5 | CC1(C)SCCN(S(=O)(=O)c2ccc(Oc3ccncc3)cc2)[C@H]1C(=O)NO [AG3340] | – | – | musculoskeletal syndrome in patients (patients): cause a musculoskeletal syndrome characterized by joint pain and stiffness
6 | Cc1cc(C)nc(SCC(CS(=O)(=O)c2ccc(-c3ccc(Cl)cc3)cc2)C(=O)O)n1 (stereo not drawn) [Example 27, 3-[(4′-chloro[1,1′-biphenyl]-4-yl)sulfonyl]-2-[[(4,6-dimethyl-2-pyrimidinyl)sulfanyl]methyl]propanoic acid] | 22.8 | 170 to 172 | –
7 | CNC(=O)[C@@H](NC(=O)[C@H](CC(C)C)[C@H](O)C(=O)NO)C(C)(C)C [Marimastat] | – | – | joint toxicity (histology of stifle joints) (rats): elicited histological alteration of stifle joints
8 | O=C(NO)C(CN1C(=O)CNC1=O)CS(=O)(=O)c1ccc(-c2ccc(Cl)cc2)cc1 (stereo not drawn) [Example 12, 3-[(4′-chloro[1,1′-biphenyl]-4-yl)sulfonyl]-N-hydroxy-2-[(2,5-dioxo-1-imidazolidinyl)methyl]propanamide] | – | 150 to 156 | Ki ([1]; Protocol B: pH 7.4, 37° C., hydroxamic acids (X is —NHOH), read-out: MMP-2 Ki (picoM)): 0.069 nM; Ki ([2]; Protocol B: pH 7.4, 37° C., hydroxamic acids (X is —NHOH), read-out: MMP-1 Ki (picoM)): 17.1 nM
9 | O=C(O)C(CSc1ccccc1)CS(=O)(=O)c1ccc(-c2ccc(Cl)cc2)cc1 (racemic) [Example 1, 3-[(4′-chloro[1,1′-biphenyl]-4-yl)sulfonyl]-2-[(phenylsulfanyl)methyl]propanoic acid] | 8.3 | 158 to 162 | –
10 | Nc1nnc(SCC(CS(=O)(=O)c2ccc(-c3ccc(Cl)cc3)cc2)C(=O)O)s1 (stereo not drawn) [Example 23, 3-[(4′-chloro[1,1′-biphenyl]-4-yl)sulfonyl]-2-[[(5-amino-1,3,4-thiadiazol-2-yl)sulfanyl]methyl]propanoic acid] | 25 | 184 to 186 | –
11 | O=C(O)C(CSc1ncccn1)CS(=O)(=O)c1ccc(-c2ccc(Cl)cc2)cc1 (stereo not drawn) [Example 22, 3-[(4′-chloro[1,1′-biphenyl]-4-yl)sulfonyl]-2-[(2-pyrimidinylsulfanyl)methyl]-propanoic acid] | 8 | 166 to 168 | Ki ([2]; Protocol A: pH 6.5, 37° C., enzyme 200 picoM, substrate 3 μM, carboxylic acids, read-out: MMP-1 Ki): 8030 nM
12 | Cn1nnnc1SCC(CS(=O)(=O)c1ccc(-c2ccc(Cl)cc2)cc1)C(=O)O (stereo not drawn) [Example 32, 3-[(4′-chloro[1,1′-biphenyl]-4-yl)sulfonyl]-2-[[(1-methyl-1H-tetrazol-5-yl)sulfanyl]methyl]propanoic acid] | 26 | 98 to 100 | –
13 | O=C(O)C(CN1C(=O)CNC1=O)CS(=O)(=O)c1ccc(-c2ccc(Cl)cc2)cc1 (stereo not drawn) [Example 11, 3-[(4′-chloro[1,1′-biphenyl]-4-yl)sulfonyl]-2-[(2,5-dioxo-1-imidazolidinyl)methyl]propanoic acid] | 4 | 188 to 190 | –
